Legend:
Format in all cases: in vivo
[1] = system: giant foxtail (Setaria faberii); assay: Test A pre-/postemergence plant response
How it was run: (§1)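 Each species was treated preemergence via directed soil spray and postemergence at the one- to two-leaf stage, with compounds formulated in a non-phytotoxic solvent plus surfactant. Visual injury relative to untreated controls was rated after about ten days on a 0–100 scale.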

[2] = system: large crabgrass (Digitaria sanguinalis); assay: Test A pre-/postemergence plant response; conditions: for Crabgrass, Large plant response rating: visual injury, 0 to 100 scale (0 no effect, 100 complete control), approx. ten days
How it was run: as §1

[3] = system: pigweed (Amaranthus retroflexus); assay: Test A pre-/postemergence plant response
How it was run: as §1

[4] = system: wheat (Triticum aestivum); assay: Test A pre-/postemergence plant response
How it was run: as §1

[5] = system: morningglory (Ipomoea spp.); assay: Test A pre-/postemergence plant response
How it was run: as §1

[6] = system: corn (Zea mays); assay: Test A pre-/postemergence plant response; conditions: for Corn plant response rating: visual injury, 0 to 100 scale (0 no effect, 100 complete control), approx. ten days
How it was run: as §1

[7] = system: barnyardgrass (Echinochloa crus-galli); assay: Test A pre-/postemergence plant response; conditions: for Barnyardgrass plant response rating: visual injury, 0 to 100 scale (0 no effect, 100 complete control), approx. ten days
How it was run: as §1

[8] = system: velvetleaf (Abutilon theophrasti); assay: Test A pre-/postemergence plant response
How it was run: as §1

[9] = system: ducksalad (Heteranthera limosa); assay: Test B flooded paddy test; conditions: for Plant response rating, Flood, Ducksalad: 250 g ai/ha, flooded paddy test, visual rating on 0 to 100 scale (0 no effect, 100 complete control) after 13 to 15 days; for Plant response rating, Ducksalad: Flood (flooded paddy test), 13 to 15 days; for Ducksalad plant response rating: Flood, 31 g ai/ha, scale 0 to 100 (0 no effect, 100 complete control)
How it was run: (§2)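 Ratings are visual, 0–100 (100 = complete control), taken versus untreated controls 13 to 15 days after treatment in the greenhouse. Compound went straight into paddy water held 3 cm above soil, applied to 2-leaf-stage plants of four species.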

[10] = system: rice (Oryza sativa); assay: Test B flooded paddy test; conditions: for Plant response rating, Flood, Rice: 250 g ai/ha, flooded paddy test, visual rating on 0 to 100 scale (0 no effect, 100 complete control) after 13 to 15 days; for Plant response rating, Rice: Flood (flooded paddy test), 13 to 15 days; for Rice plant response rating: Flood, 31 g ai/ha, scale 0 to 100 (0 no effect, 100 complete control)
How it was run: as §2

[11] = system: barnyardgrass (Echinochloa crus-galli); assay: Test B flooded paddy test; conditions: for Plant response rating, Flood, Barnyardgrass: 250 g ai/ha, flooded paddy test, visual rating on 0 to 100 scale (0 no effect, 100 complete control) after 13 to 15 days; for Plant response rating, Barnyardgrass: Flood (flooded paddy test), 13 to 15 days; for Barnyardgrass plant response rating: Flood, 31 g ai/ha, scale 0 to 100 (0 no effect, 100 complete control)
How it was run: as §2

[12] = system: umbrella sedge (Cyperus difformis); assay: Test B flooded paddy test; conditions: for Plant response rating, Flood, Sedge, Umbrella: 250 g ai/ha, flooded paddy test, visual rating on 0 to 100 scale (0 no effect, 100 complete control) after 13 to 15 days; for Plant response rating, Sedge, Umbrella: Flood (flooded paddy test), 13 to 15 days; for Sedge, Umbrella plant response rating: Flood, 31 g ai/ha, scale 0 to 100 (0 no effect, 100 complete control)
How it was run: as §2

[13] = Postemergence, 125 g ai/ha, visual injury, 0 to 100 scale (0 no effect, 100 complete control), approx. ten days
[14] = Postemergence, 500 g ai/ha, visual injury, 0 to 100 scale (0 no effect, 100 complete control), approx. ten days
[15] = Preemergence, 125 g ai/ha, 0 to 100 scale where 0 is no effect and 100 is complete control, approximately ten days
[16] = Preemergence, 500 g ai/ha, 0 to 100 scale, 0 = no effect, 100 = complete control
[17] = Postemergence, 125 g ai/ha, 0 to 100 scale where 0 is no effect and 100 is complete control
[18] = 62 g ai/ha, scale of 0 to 100 where 0 is no effect and 100 is complete control
[19] = 125 g ai/ha, scale 0 to 100, 0 is no effect, 100 is complete control

CCCCn1c(-c2cc(F)cc(F)c2)ncc(C(=O)C2=C(O)C3CCC(C3)C2=O)c1=O (stereo not drawn) [Compound 245]
100: Plant response rating, Foxtail, Giant [1, 13] | Foxtail, Giant plant response rating [1, 14] | Plant response rating, Crabgrass, Large [2, 16] | Plant response rating, Pigweed [3, 13] | Pigweed plant response rating [3, 14] | Plant response rating, Morningglory [5, 13] | Morningglory plant response rating [5, 14] | Barnyardgrass plant response rating ([7]; Postemergence, 500 g ai/ha) | Plant response rating, Barnyardgrass [7, 16] | Plant response rating, Velvetleaf [8, 13] | Velvetleaf plant response rating [8, 14] | Plant response rating, Velvetleaf [8, 16] | Plant response rating, Flood, Ducksalad [9] | Plant response rating, Ducksalad [9, 18] | Plant response rating, Ducksalad [9, 19] | Ducksalad plant response rating [9] | Plant response rating, Flood, Sedge, Umbrella [12] | Plant response rating, Sedge, Umbrella [12, 18] | Plant response rating, Sedge, Umbrella [12, 19]
50: Plant response rating, Rice [10, 18] | Plant response rating, Rice [10, 19] | Rice plant response rating [10]
90: Plant response rating, Foxtail, Giant [1, 16] | Plant response rating, Crabgrass, Large [2, 17] | Crabgrass, Large plant response rating ([2]; Postemergence, 500 g ai/ha) | Plant response rating, Pigweed [3, 16] | Corn plant response rating ([6]; Postemergence, 500 g ai/ha) | Plant response rating, Barnyardgrass [7, 17] | Plant response rating, Flood, Rice [10]
0: Plant response rating, Wheat [4, 15] | Plant response rating, Corn [6, 15] | Plant response rating, Barnyardgrass [11, 18] | Barnyardgrass plant response rating [11]
40: Plant response rating, Wheat [4, 13] | Plant response rating, Corn [6, 17] | Plant response rating, Barnyardgrass [7, 15] | Plant response rating, Barnyardgrass [11, 19]
65: Plant response rating, Flood, Barnyardgrass [11]
20: Plant response rating, Wheat [4, 16] | Plant response rating, Morningglory [5, 15] | Plant response rating, Corn [6, 16]
70: Plant response rating, Velvetleaf [8, 15]
60: Plant response rating, Morningglory [5, 16] | Sedge, Umbrella plant response rating [12]
80: Plant response rating, Foxtail, Giant [1, 15] | Plant response rating, Crabgrass, Large [2, 15] | Plant response rating, Pigweed [3, 15] | Wheat plant response rating [4, 14]

CCc1ccccc1-n1c(-c2ccccc2)ncc(C(=O)C2=C(O)CCCC2=O)c1=O [Compound 255]
40: Plant response rating, Morningglory [5, 15]
30: Plant response rating, Corn [6, 17]
10: Plant response rating, Wheat [4, 13] | Plant response rating, Barnyardgrass [7, 15]
50: Plant response rating, Foxtail, Giant [1, 16] | Wheat plant response rating [4, 14] | Plant response rating, Ducksalad [9, 18] | Plant response rating, Sedge, Umbrella [12, 19]
60: Plant response rating, Morningglory [5, 16] | Plant response rating, Velvetleaf [8, 15] | Plant response rating, Ducksalad [9, 19] | Plant response rating, Flood, Sedge, Umbrella [12]
80: Plant response rating, Flood, Ducksalad [9]
90: Plant response rating, Foxtail, Giant [1, 13] | Foxtail, Giant plant response rating [1, 14] | Plant response rating, Crabgrass, Large [2, 17] | Plant response rating, Crabgrass, Large [2, 16] | Plant response rating, Pigweed [3, 13] | Plant response rating, Pigweed [3, 16] | Plant response rating, Barnyardgrass [7, 17]
100: Crabgrass, Large plant response rating ([2]; Postemergence, 500 g ai/ha) | Pigweed plant response rating [3, 14] | Plant response rating, Morningglory [5, 13] | Morningglory plant response rating [5, 14] | Barnyardgrass plant response rating ([7]; Postemergence, 500 g ai/ha) | Plant response rating, Barnyardgrass [7, 16] | Plant response rating, Velvetleaf [8, 13] | Velvetleaf plant response rating [8, 14] | Plant response rating, Velvetleaf [8, 16]
0: Plant response rating, Foxtail, Giant [1, 15] | Plant response rating, Wheat [4, 15] | Plant response rating, Wheat [4, 16] | Plant response rating, Corn [6, 15] | Plant response rating, Corn [6, 16] | Ducksalad plant response rating [9] | Plant response rating, Flood, Rice [10] | Plant response rating, Rice [10, 18] | Plant response rating, Rice [10, 19] | Rice plant response rating [10] | Plant response rating, Flood, Barnyardgrass [11] | Plant response rating, Barnyardgrass [11, 18] | Plant response rating, Barnyardgrass [11, 19] | Barnyardgrass plant response rating [11] | Sedge, Umbrella plant response rating [12]
20: Plant response rating, Crabgrass, Large [2, 15] | Plant response rating, Sedge, Umbrella [12, 18]
70: Plant response rating, Pigweed [3, 15] | Corn plant response rating ([6]; Postemergence, 500 g ai/ha)

From patent US8952024B2, “Herbicidal pyrimidone derivatives” (E I du Pont de Nemours and Company, priority 2009, dated 2015)
